Measured values as given in US7557181B2, “Pan-HER antagonists and methods of use” (Molecular Logix, Inc., priority 2005, dated 2009).

Assays:
[1] = test system: HER5 cells (mouse fibroblast cells that overexpress human EGFR); assay: HER5 cell proliferation stimulation assay (WST-1); type: cell-based; details: serum-free, 48 hour proliferation period, FIG. 3
Method: Hung (MD Anderson Cancer Center). Stock cultures of HER5 were propagated in D-MEM/F12 medium containing 10% fetal bovine serum, 100 units/ml of penicillin and 100 ug/ml of streptomycin in a water-jacketed incubator at 37° C. in a humidified 5% CO2 atmosphere. For HER5 proliferation assays, the cells were changed into DMEM/F12 without serum for 24 hours. Cells were then trypsinized and suspended at 1E5 cells/ml. […] Fifty microliters of cell suspension (5000 cells) were added to appropriate wells bringing the total volume to 100 ul at the desired concentrations. Plates were incubated for a 48 hour proliferation period. Cell proliferation was determined by addition of 10 ul/well of WST-1 Cell Proliferation Reagent (Roche Applied Sciences, Indianapolis, Ind.) for the last three hours of the proliferation period. WST-1 is a tetrazolium salt that is cleaved to formazan dye by mitochondrial dehydrogenases in viable cells. The amount of formazan was measured at 450 nm using a microplate reader (Dynex Technologies) with MRX Revelation software.

[2] = test system: MCF-7 cells (human breast cancer cell line that express HER2 and HER3); assay: MCF-7 cell proliferation stimulation assay (WST-1); type: cell-based; details: serum-free, 72 hours, FIG. 4
Method: MCF-7 cells were obtained from the American Type Culture Collection (ATCC). Stock cultures of MCF-7 were maintained in Eagle's MEM supplemented with 1% ITS-X (Invitrogen) and 10% fetal bovine serum. For proliferation assays, MCF-7 cells were transferred to serum-free medium (SFM) for 24 hours and then trypsinized and suspended at 1E5 cells/mL in SFM. Fifty microliters of cell suspension (5000 cells) were plated per well in 96 well microtiter plates. Serial dilutions of HER ligands or mutant proteins were prepared at twice the final concentration in SFM and 50 ul was added to wells, bringing the final volume to 100 ul at the desired final concentration. Plates were incubated for 72 hours at 37 C in a humidified 5% CO2 atmosphere. Cell proliferation was determined by addition of 10 ul/well of WST-1 Cell Proliferation Reagent (Roche Applied Sciences, Indianapolis, Ind.) for the last three hours of the proliferation period.

Question: Which results are given for “Epidermal growth factor [EGF, agonistic ligand for EGFR]”?
Answer: stimulation of HER5 cells (proliferation) [1]: can be stimulated; stimulation of MCF-7 cells (proliferation) [2]: not
